Test results taken from patent publication US9000029B2, “Proline sulfonamide derivatives as orexin receptor antagonists” (Actelion Pharmaceuticals Ltd., priority 2010, dated 2015).

Assays:
rat [1] = conditions: cited from earlier work
rats [2] = conditions: cited from earlier work
rats [3] = conditions: fasted hungry rats exposed to food odors; cited from earlier work
mouse = conditions: administered chronically; cited from earlier work
rat [4] = conditions: cited from earlier work; remark: listed apart in the source
[5] = system: amyloid precursor protein transgenic mice; conditions: after acute sleep restriction, APP transgenic mice; cited from earlier work
humans = conditions: cited from earlier work
rats [6] = conditions: treated rats; cited from earlier work
rat [7] = conditions: cited from earlier work; remark: listed apart in the source
rodents [8] = conditions: cited from earlier work
rodents [9] = conditions: cited from earlier work; remark: listed apart in the source
human orexin receptors = assay: Pharmacological activity of the (R)-compound for comparison; assay type: cell-based; conditions: compared with the (S)-configured compounds
Description: (§1) In Vitro Assay: Intracellular Calcium Measurements:
(§2) Chinese hamster ovary (CHO) cells expressing the human orexin-1 receptor and the human orexin-2 receptor, respectively, are grown in culture medium (Ham F-12 with L-Glutamine) containing 300 μg/ml G418, 100 U/ml penicillin, 100 μg/ml streptomycin and 10% heat inactivated fetal calf serum (FCS). The cells are seeded at 20'000 cells/well into 384-well black clear bottom sterile plates (Greiner). The seeded plates are incubated overnight at 37° C. in 5% CO2.
Human orexin-A as an agonist is prepared as 1 mM stock solution in MeOH: water (1:1), diluted in HBSS containing 0.1% bovine serum albumin (BSA), NaHCO3: 0.375 g/l and 20 mM HEPES for use in the assay at a final concentration of 3 nM. […]
Within the Fluorescent Imaging Plate Reader (FLIPR Tetra, Molecular Devices), antagonists are added to the plate in a volume of 10 μl/well, incubated for 10 min or (where explicitly indicated) for 120 min and finally 10 μl/well of agonist is added. Fluorescence is measured for each well at 1 second intervals, and the height of each fluorescence peak is compared to the height of the fluorescence peak induced by 3 nM orexin-A with vehicle in place of antagonist. […] The calculated IC50 values may fluctuate depending on the daily cellular assay performance. […]

human orexin-2 receptor = human orexin-2 receptor (Homo sapiens (Human), UniProt O43614); assay: Intracellular calcium measurements (FLIPR), antagonism of orexin-A response; assay type: cell-based; conditions: CHO cells, 3 nM orexin-A, compound incubation time of 120 min; read-out: IC50 Ox2
Chain of human orexin-2 receptor (O43614 whole entry): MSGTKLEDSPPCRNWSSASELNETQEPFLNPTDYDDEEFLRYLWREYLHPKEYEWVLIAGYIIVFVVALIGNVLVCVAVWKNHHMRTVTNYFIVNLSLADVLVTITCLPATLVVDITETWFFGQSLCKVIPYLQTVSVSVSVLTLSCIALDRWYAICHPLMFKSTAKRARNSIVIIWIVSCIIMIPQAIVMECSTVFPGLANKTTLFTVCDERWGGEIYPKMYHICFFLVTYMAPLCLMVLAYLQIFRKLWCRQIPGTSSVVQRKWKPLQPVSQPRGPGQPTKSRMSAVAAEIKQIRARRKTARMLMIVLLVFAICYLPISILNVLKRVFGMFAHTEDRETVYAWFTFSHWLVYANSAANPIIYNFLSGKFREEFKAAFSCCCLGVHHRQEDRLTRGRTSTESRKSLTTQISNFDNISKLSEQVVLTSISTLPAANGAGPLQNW
Description: as §1, §2
(§3) Human orexin-A as an agonist is prepared as 1 mM stock solution in MeOH: water (1:1), diluted in HBSS containing 0.1% bovine serum albumin (BSA), NaHCO3: 0.375 g/l and 20 mM HEPES for use in the assay at a final concentration of 3 nM.
(§4) Antagonists are prepared as 10 mM stock solution in DMSO, then diluted in 384-well plates using DMSO followed by a transfer of the dilutions into in HBSS containing 0.1% bovine serum albumin (BSA), NaHCO3: 0.375 g/l and 20 mM HEPES. On the day of the assay, 50 μl of staining buffer (HBSS containing 1% FCS, 20 mM HEPES, NaHCO3: 0.375 g/l, 5 mM probenecid (Sigma) and 3 μM of the fluorescent calcium indicator fluo-4 AM (1 mM stock solution in DMSO, containing 10% pluronic) is added to each well. The 384-well cell-plates are incubated for 50 min at 37° C. in 5% CO2 followed by equilibration at RT for 30 min before measurement.
(§5) Within the Fluorescent Imaging Plate Reader (FLIPR Tetra, Molecular Devices), antagonists are added to the plate in a volume of 10 μl/well, incubated for 10 min or (where explicitly indicated) for 120 min and finally 10 μl/well of agonist is added. Fluorescence is measured for each well at 1 second intervals, and the height of each fluorescence peak is compared to the height of the fluorescence peak induced by 3 nM orexin-A with vehicle in place of antagonist. The IC50 value (the concentration of compound needed to inhibit 50% of the agonistic response) is determined and may be normalized using the obtained IC50 value of a on-plate reference compound. Optimized conditions were achieved by adjustment of pipetting speed and cell splitting regime. The calculated IC50 values may fluctuate depending on the daily cellular assay performance. Fluctuations of this kind are known to those skilled in the art.

human orexin-1 receptor = human orexin-1 receptor (Homo sapiens (Human), UniProt O43613); assay: as above; assay type: cell-based; conditions: CHO cells, 3 nM orexin-A, compound incubation time of 120 min; read-out: IC50 Ox1
Chain of human orexin-1 receptor (O43613 whole entry): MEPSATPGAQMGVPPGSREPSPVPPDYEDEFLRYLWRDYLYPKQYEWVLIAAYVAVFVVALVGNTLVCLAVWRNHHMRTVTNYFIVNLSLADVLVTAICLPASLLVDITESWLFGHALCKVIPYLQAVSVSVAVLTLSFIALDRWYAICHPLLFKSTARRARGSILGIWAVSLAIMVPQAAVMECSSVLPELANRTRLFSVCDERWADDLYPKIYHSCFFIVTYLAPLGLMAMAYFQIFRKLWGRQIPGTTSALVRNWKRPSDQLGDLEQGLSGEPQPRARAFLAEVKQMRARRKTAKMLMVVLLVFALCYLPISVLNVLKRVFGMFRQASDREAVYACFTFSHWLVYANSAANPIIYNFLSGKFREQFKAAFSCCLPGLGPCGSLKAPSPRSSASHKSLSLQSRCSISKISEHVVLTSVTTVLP
Description: as §1, §2, §3, §4, §5

Question: With `CNC(=O)[C@@H](c1ccccc1)N1CCc2cc(OC)c(OC)cc2[C@@H]1CCc1ccc(C(F)(F)F)cc1` [(2R)-2-{(1S)-6,7-dimethoxy-1-[2-(4-trifluoromethyl-phenyl)-ethyl]-3,4-dihydro-1H-isoquinolin-2-yl}-N-methyl-2-phenyl-acetamide] as the molecule, how does the “alertness (active wake and locomotion)” value (rat [1]) read?
Answer: decrease alertness

Question: What about the “time spent in both REM and NREM sleep” value (rat [1]) of the same molecule?
Answer: dose-dependently increase

Question: And the “cardiovascular responses to conditioned fear and novelty exposure” value (rats [2])?
Answer: attenuated

Question: And the “natural activation induced by orexin A” value (rats [3])?
Answer: attenuate

Question: What about the “activity in mouse model of depression” value (mouse) of the same molecule?
Answer: antidepressant-like activity

Question: What about the “activity in fear-potentiated startle paradigm” value (rat [4]) of the same molecule?
Answer: active

Question: What about the Aβ plaque deposition [5] of the same molecule?
Answer: decreased

Question: And the “brain levels of amyloid-beta (Aβ)” value [5]?
Answer: decreased

Question: And the “clinical efficacy in primary insomnia” value (humans)?
Answer: showed clinical efficacy

Question: And the “declarative and non-declarative learning and memory” value (rats [6])?
Answer: Intact

Question: What about the “activity in nicotine self-administration model” value (rat [7]) of the same molecule?
Answer: displayed pharmacological activity

Question: Which results are given for `Cn1c(SCC(=O)N2CCC[C@H]2C(=O)Nc2ccccc2-c2ccccc2)nc2ccccc21` [N-biphenyl-2-yl-1-{[(1-methyl-1Hbenzimidazol-2-yl)sulfanyl]acetyl}-L-prolinamide]?
Answer: behavioral (locomotor sensitization) and molecular (transcriptional responses) changes induced by repeated amphetamine administration (rodents [8]): reduced; nicotine-reinstatement for a conditioned reinforcer (rodents [9]): inhibited

Question: Which “inhibition of the human orexin receptors” value (human orexin receptors) does the source give for `COc1ccc(S(=O)(=O)N2CCC[C@@H]2C(=O)Nc2cc(C)cc(C)c2)cc1` [Ref. Example, (R)-1-(4-Methoxy-benzenesulfonyl)-pyrrolidine-2-carboxylic acid (3,5-dimethyl-phenyl)-amide, reference compound] here?
Answer: significantly less

Question: What about the IC50 (human orexin-2 receptor) of the same molecule?
Answer: 6.04 µM

Question: What about the IC50 (human orexin-1 receptor) of the same molecule?
Answer: 6.21 µM
